Test [1] in a line: Inhibition of yeast alpha-glucosidase using p-nitrophenyl-alpha-D-glucopyranoside as substrate preincubated with enzyme for 10 mins followed by substrate addition measured after 20 mins by spectrophotometric method. Also noted: species or system Saccharomyces cerevisiae.
The next test concerns Saccharomyces cerevisiae. As to the kind of experiment: Non-competitive inhibition of yeast alpha-glucosidase assessed as decrease in Vmax with constant Km using p-nitrophenyl-alpha-D-glucopyranoside as substrate by Lineweaver-Burk double reciprocal plot analysis.
Test [2] in a line: Non-competitive inhibition of yeast alpha-glucosidase using p-nitrophenyl-alpha-D-glucopyranoside as substrate by Lineweaver-Burk double reciprocal plot analysis. Also noted: species or system Saccharomyces cerevisiae.

Drawing on ChEMBL document CHEMBL5120781, “α-Glucosidase Inhibitors from the Stems of Knema globularia” (J Nat Prod, 2022), this text covers IC50, inhibition and Ki for 16 compounds.

The source made the active and inactive calls. The calls are words filed in the database; no cut-off is given here. Where only a bound is given, the exact number is not on record here.

In test [1], `O=C(/C=C/c1ccc2oc(-c3ccc(O)cc3)c(C(=O)c3ccc(O)cc3O)c2c1)c1ccc(O)cc1O` had an IC50 of 3200 nM. For `CCCCCCCCCCCCCCCC1=C(O)C(=O)C2=C(Oc3cc(O)c4c(c3C2(C)C)O[C@@H](c2ccc(O)c(O)c2)[C@H](O)C4)C1=O`, in test [1], the IC50 was 1400 nM.

`CCCCCCCCCCCC1=C(O)C(=O)C2=C(Oc3cc(O)c4c(c3C2(C)C)O[C@@H](c2ccc(O)c(O)c2)[C@H](O)C4)C1=O` displayed a concentration for half-maximal inhibition (IC50) in test [1] of 2000 nM. On to `CCCCCCCCCCCCCC1=C(O)C(=O)C=C(O)C1=O` [Rapanone], for which the half-maximal inhibitory concentration (IC50) in test [1] was 1800 nM. Same read-out and setting: under `O=C(/C=C/c1ccc(O)cc1)c1c(O)cc(O)c2c(C(=O)c3ccc(O)cc3O)c(-c3ccc(O)cc3)oc12` stands 1300 nM; under `COc1ccc(-c2coc3cc4c(c(OC)c3c2=O)OCO4)cc1`, above 200000 nM. `COc1ccc(C(=O)[C@@H](c2coc3cc(O)ccc3c2=O)C(c2ccc(O)cc2)c2ccc(O)cc2)c(O)c1`: half-maximal inhibition in test [1] (IC50) required 6100 nM. On the same count and under the same terms, the result for `O=C(/C=C/c1ccc2c(c1)[C@H](C(=O)c1ccc(O)cc1O)[C@@H](c1ccc(O)cc1)O2)c1ccc(O)cc1O` reads 2300 nM; that for `O=C(/C=C/c1ccc(O)c([C@@H]2C(=O)c3c(O)cc(O)cc3O[C@H]2c2ccc(O)cc2)c1)c1ccc(O)cc1O`, 2500 nM; that for `COc1ccc(-c2coc3cc4c(c(OC)c3c2=O)OCO4)cc1OC`, 178000 nM. Still for that read-out and setting: under `CCCCCCCCCCCCCC1=C(O)C(=O)C2=C(Oc3cc(O)c4c(c3C2(C)C)O[C@@H](c2ccc(O)c(O)c2)[C@H](O)C4)C1=O` stands 1600 nM.

Take `CCCCCCCCCCCC1=C(O)C(=O)C=C(O)C1=O` [EMBELIN]: inhibition in test [1] was half-maximal at 2400 nM (IC50). Still for that read-out and setting: the result for `C[C@H]1O[C@H](O[C@H]2[C@H](O)[C@@H](O)[C@@H](O[C@H]3[C@H](O)[C@@H](O)C(O)O[C@@H]3CO)O[C@@H]2CO)[C@H](O)[C@@H](O)[C@@H]1N[C@H]1C=C(CO)[C@@H](O)[C@H](O)[C@H]1O` (stereo partly drawn) [ACARBOSE] reads 93600 nM; that for `O=C(/C=C/c1ccc2c(c1)[C@@H](C(=O)c1ccc(O)cc1O)[C@H](c1ccc(O)cc1)O2)c1ccc(O)cc1O`, 5600 nM; that for `O=C(C[C@@H]1C(=O)c2ccc(O)cc2O[C@H]1c1ccc(O)cc1)c1ccc(O)cc1O`, 26600 nM. In turn, `O=C(CCc1ccc(O)cc1)c1c(O)cc(O)c2c(C(=O)c3ccc(O)cc3O)c(-c3ccc(O)cc3)oc12` yielded an IC50 in test [1] of 400 nM. Moreover, the inhibition result in the test on Saccharomyces cerevisiae is “Active”. This compound showed a Ki in test [2] of 3400 nM.

The IC50 is the concentration that inhibits the measured activity by half. What is called Ki is a measure of affinity in units of concentration, obtained from inhibition or displacement.
